Measured values reported in patent publication US6737383B1, “Herbicidal oxadiazolidines” (priority 1999, dated 2004).

Key:
arrowleaf sida = test: Test C postemergence arrowleaf sida; format: in vivo, Sida rhombifolia; details: 0 to 100 scale, 0 no effect, 100 complete control
Method: (§1) Compounds evaluated in this test were formulated in a non-phytotoxic solvent mixture which included a surfactant and applied to plants that were grown for various periods of time before treatment (postemergence application). A mixture of sandy loam soil and greenhouse potting mix in a 60:40 ratio was used for the postemergence test.
(§2) Plantings of these crops and weed species were adjusted to produce plants of appropriate size for the postemergence test. All plant species were grown using normal greenhouse practices. Crop and weed species include arrowleaf sida (Sida rhombifolia), barnyardgrass (Echinochloa crus-galli), cocklebur (Xanthium strumarium), common ragweed (Ambrosia elatior), corn (Zea mays), cotton (Gossypium hirsutum), eastern black nightshade (Solanum ptycanthum), fall panicum (Panicum dichotomiflorum), field bindweed (Convolvulus arvensis), giant foxtail (Setaria faberii), hairy beggarticks (Bidens pilosa), ivyleaf morningglory (Ipomoea hederacea), johnsongrass (Sorghum halepense), ladysthumb smartweed (Polygonum persicaria), lambsquarters (Chenopodium album), large crabgrass (Digitaria sanguinalis), purple nutsedge (Cyperus rotundus), redroot pigweed (Amaranthus retroflexus), soybean (Glycine max), surinam grass (Brachiaria decumbens), velvetleaf (Abutilon theophrasti) and wild poinsettia (Euphorbia heterophylla).
(§3) Treated plants and untreated controls were maintained in a greenhouse for approximately 14, to 21 days, after which all treated plants were compared to untreated controls and visually evaluated. Plant response ratings, summarized in Table C, were based upon a 0 to 100 scale where 0 was no effect and 100 was complete control. A dash response (−) means no test result.

cocklebur = test: Test C postemergence cocklebur; format: in vivo, Xanthium strumarium; details: 0 to 100 scale, 0 no effect, 100 complete control
Method in brief: (§4)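 Greenhouse postemergence test: compound applied in solvent/surfactant formulation to established plants; visual scoring 0–100 against untreated controls after roughly two to three weeks (14–21 days).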

common ragweed = test: Test C postemergence common ragweed; format: in vivo, Ambrosia elatior; details: 0 to 100 scale, 0 no effect, 100 complete control
Method in brief: as §4

corn = test: Test C postemergence corn; format: in vivo, Zea mays; details: 0 to 100 scale, 0 no effect, 100 complete control
Method in brief: as §4

cotton = test: Test C postemergence cotton; format: in vivo, Gossypium hirsutum; details: 0 to 100 scale, 0 no effect, 100 complete control
Method: as §1, §2, §3

eastern black nightshade = test: Test C postemergence eastern black nightshade; format: in vivo, Solanum ptycanthum; details: 0 to 100 scale, 0 no effect, 100 complete control
Method in brief: as §4

fall panicum = test: Test C postemergence fall panicum; format: in vivo, Panicum dichotomiflorum; details: 0 to 100 scale, 0 no effect, 100 complete control
Method: as §1, §2, §3

giant foxtail = test: Test C postemergence giant foxtail; format: in vivo, Setaria faberii; details: 0 to 100 scale, 0 no effect, 100 complete control
Method: as §1, §2, §3

hairy beggarticks = test: Test C postemergence hairy beggarticks; format: in vivo, Bidens pilosa; details: 0 to 100 scale, 0 no effect, 100 complete control
Method: as §1, §2, §3

ivyleaf morningglory = test: Test C postemergence ivyleaf morningglory; format: in vivo, Ipomoea hederacea; details: 0 to 100 scale, 0 no effect, 100 complete control
Method: as §1, §2, §3

johnsongrass = test: Test C postemergence johnsongrass; format: in vivo, Sorghum halepense; details: 0 to 100 scale, 0 no effect, 100 complete control
Method: as §1, §2, §3

ladysthumb smartweed = test: Test C postemergence ladysthumb smartweed; format: in vivo, Polygonum persicaria; details: 0 to 100 scale, 0 no effect, 100 complete control
Method: as §1, §2, §3

lambsquarters = test: Test C postemergence lambsquarters; format: in vivo, Chenopodium album; details: 0 to 100 scale, 0 no effect, 100 complete control
Method: as §1, §2, §3

large crabgrass = test: Test C postemergence large crabgrass; format: in vivo, Digitaria sanguinalis; details: 0 to 100 scale, 0 no effect, 100 complete control
Method: as §1, §2, §3

purple nutsedge = test: Test C postemergence purple nutsedge; format: in vivo, Cyperus rotundus; details: 0 to 100 scale, 0 no effect, 100 complete control
Method: as §1, §2, §3

redroot pigweed = test: Test C postemergence redroot pigweed; format: in vivo, Amaranthus retroflexus; details: 0 to 100 scale, 0 no effect, 100 complete control
Method in brief: as §4

soybean = test: Test C postemergence soybean; format: in vivo, Glycine max; details: 0 to 100 scale, 0 no effect, 100 complete control
Method: as §1, §2, §3

surinam grass = test: Test C postemergence surinam grass; format: in vivo, Brachiaria decumbens; details: 0 to 100 scale, 0 no effect, 100 complete control
Method in brief: as §4

velvetleaf = test: Test C postemergence velvetleaf; format: in vivo, Abutilon theophrasti; details: 0 to 100 scale, 0 no effect, 100 complete control
Method in brief: as §4

wild poinsettia = test: Test C postemergence wild poinsettia; format: in vivo, Euphorbia heterophylla; details: 0 to 100 scale, 0 no effect, 100 complete control
Method: as §1, §2, §3

Green foxtail = test: Test D green foxtail; format: in vivo; details: Preemergence, 0 to 100 scale
Method in brief: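 Visual injury ratings, 0 = no injury to 100 = complete control, taken 14 to 21 days after treatment. Test chemicals were in a surfactant-containing non-phytotoxic solvent; preemergence treatments went onto the sandy loam surface of seeded greenhouse pots within one day of sowing.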

CC(C)N(C(=O)n1oc(=O)n(C(C)C)c1=O)c1ccc(F)cc1F [Compound 109]
80: Plant response rating E. blacknightsh (eastern black nightshade; Rate 280 g/ha) | Plant response rating Fall panicum (fall panicum; Rate 560 g/ha) | Plant response rating, Giant foxtail (giant foxtail; Rate 280 g/ha) | Plant response rating, Giant foxtail (giant foxtail; Rate 560 g/ha)
20: Plant response rating Common ragweed (common ragweed; Rate 1120 g/ha) | Plant response rating, Velvetleaf (velvetleaf; Rate 280 g/ha)
60: Plant response rating Arrowleaf sida (arrowleaf sida; Rate 140 g/ha) | Plant response rating, Cocklebur (cocklebur; Rate 560 g/ha) | Plant response rating Johnsongrass (johnsongrass; Rate 560 g/ha) | Plant response rating Large crabgrass (large crabgrass; Rate 280 g/ha)
5: Plant response rating Common ragweed (common ragweed; Rate 140 g/ha) | Plant response rating, Corn (corn; Rate 560 g/ha) | Plant response rating H. beggarticks (hairy beggarticks; Rate 280 g/ha) | Plant response rating Surinam grass (surinam grass; Rate 280 g/ha)
50: Plant response rating Cotton (cotton; Rate 280 g/ha) | Plant response rating E. blacknightsh (eastern black nightshade; Rate 140 g/ha) | Plant response rating Fall panicum (fall panicum; Rate 140 g/ha) | Plant response rating Fall panicum (fall panicum; Rate 280 g/ha) | Plant response rating, Giant foxtail (giant foxtail; Rate 140 g/ha) | Plant response rating I. morningglory (ivyleaf morningglory; Rate 280 g/ha) | Plant response rating I. morningglory (ivyleaf morningglory; Rate 560 g/ha) | Plant response rating Surinam grass (surinam grass; Rate 560 g/ha) | Plant response rating, Velvetleaf (velvetleaf; Rate 560 g/ha) | Plant response rating Wild poinsettia (wild poinsettia; Rate 560 g/ha)
75: Plant response rating, Velvetleaf (velvetleaf; Rate 1120 g/ha)
85: Plant response rating Arrowleaf sida (arrowleaf sida; Rate 560 g/ha) | Plant response rating, Giant foxtail (giant foxtail; Rate 1120 g/ha) | Plant response rating H. beggarticks (hairy beggarticks; Rate 1120 g/ha) | Plant response rating, Redroot pigweed (redroot pigweed; Rate 1120 g/ha) | Plant response rating, Soybean (soybean; Rate 560 g/ha) | Plant response rating, Soybean (soybean; Rate 1120 g/ha)
70: Plant response rating Arrowleaf sida (arrowleaf sida; Rate 280 g/ha) | Plant response rating Cotton (cotton; Rate 560 g/ha) | Plant response rating Cotton (cotton; Rate 1120 g/ha) | Plant response rating H. beggarticks (hairy beggarticks; Rate 560 g/ha) | Plant response rating I. morningglory (ivyleaf morningglory; Rate 1120 g/ha) | Plant response rating Lambsquarters (lambsquarters; Rate 1120 g/ha) | Plant response rating, Redroot pigweed (redroot pigweed; Rate 560 g/ha) | Plant response rating, Soybean (soybean; Rate 280 g/ha)
90: Plant response rating Large crabgrass (large crabgrass; Rate 560 g/ha) | Plant response rating Large crabgrass (large crabgrass; Rate 1120 g/ha) | Plant response rating Wild poinsettia (wild poinsettia; Rate 1120 g/ha)
0: Plant response rating, Corn (corn; Rate 140 g/ha) | Plant response rating, Corn (corn; Rate 280 g/ha) | Plant response rating I. morningglory (ivyleaf morningglory; Rate 140 g/ha) | Plant response rating Johnsongrass (johnsongrass; Rate 140 g/ha) | Plant response rating, Purple nutsedge (purple nutsedge; Rate 140 g/ha) | Plant response rating, Purple nutsedge (purple nutsedge; Rate 280 g/ha) | Plant response rating, Purple nutsedge (purple nutsedge; Rate 560 g/ha) | Plant response rating, Purple nutsedge (purple nutsedge; Rate 1120 g/ha) | Plant response rating, Redroot pigweed (redroot pigweed; Rate 140 g/ha) | Plant response rating Surinam grass (surinam grass; Rate 140 g/ha)
55: Plant response rating, Corn (corn; Rate 1120 g/ha)
100: Plant response rating, Green foxtail (Green foxtail; Rate 250 g/ha) | Plant response rating, Green foxtail (Green foxtail; Rate 500 g/ha)
10: Plant response rating Common ragweed (common ragweed; Rate 280 g/ha) | Plant response rating Common ragweed (common ragweed; Rate 560 g/ha) | Plant response rating Cotton (cotton; Rate 140 g/ha) | Plant response rating Johnsongrass (johnsongrass; Rate 280 g/ha) | Plant response rating Ladysthumb (ladysthumb smartweed; Rate 280 g/ha) | Plant response rating Lambsquarters (lambsquarters; Rate 140 g/ha) | Plant response rating Lambsquarters (lambsquarters; Rate 280 g/ha) | Plant response rating Large crabgrass (large crabgrass; Rate 140 g/ha) | Plant response rating, Velvetleaf (velvetleaf; Rate 140 g/ha) | Plant response rating Wild poinsettia (wild poinsettia; Rate 140 g/ha)
95: Plant response rating Arrowleaf sida (arrowleaf sida; Rate 1120 g/ha) | Plant response rating E. blacknightsh (eastern black nightshade; Rate 1120 g/ha) | Plant response rating Fall panicum (fall panicum; Rate 1120 g/ha) | Plant response rating Johnsongrass (johnsongrass; Rate 1120 g/ha) | Plant response rating Ladysthumb (ladysthumb smartweed; Rate 1120 g/ha) | Plant response rating Surinam grass (surinam grass; Rate 1120 g/ha)
40: Plant response rating, Redroot pigweed (redroot pigweed; Rate 280 g/ha)
35: Plant response rating, Soybean (soybean; Rate 140 g/ha)
30: Plant response rating, Cocklebur (cocklebur; Rate 140 g/ha) | Plant response rating, Cocklebur (cocklebur; Rate 280 g/ha) | Plant response rating Ladysthumb (ladysthumb smartweed; Rate 560 g/ha) | Plant response rating Lambsquarters (lambsquarters; Rate 560 g/ha) | Plant response rating Wild poinsettia (wild poinsettia; Rate 280 g/ha)
